Test results reported in US8420686B2, “Linked diimidazole antivirals” (Enanta Pharmaceuticals, Inc., priority 2009, dated 2013).
pEC50: −log10 of the molar value.

The molecules below were run on HCV 1b genotype replicon (assay: HCV genotype-1b replicon assay (qRT-PCR or luciferase)). Settings: Hepatitis C virus; HCV 1b replicon cell lines (SGR 11-7 or Huh-luc/neo-ET); qRT-PCR or luciferase readout; read-out: Genotype-1b replicon EC50 Range.
Type: cell-based
Text: HCV replicon cell lines (kindly provided by R. Bartenschlager) isolated from colonies as described by Lohman et al. (Lohman et al. (1999) Science 285: 110-113, expressly incorporated by reference in its entirety) and used for all experiments. The HCV replicon has the nucleic acid sequence set forth in EMBL Accession No.: AJ242651, the coding sequence of which is from nucleotides 1801 to 8406.
The coding sequence of the published HCV replicon was synthesized and subsequently assembled in a modified plasmid pBR322 (Promega, Madison, Wis.) using standard molecular biology techniques. One replicon cell line (“SGR 11-7”) stably expresses HCV replicon RNA which consists of (i) the HCV 5′UTR fused to the first 12 amino acids of the capsid protein, (ii) the neomycin phosphotransferase gene (neo), (iii) the IRES from encephalomyocarditis virus (EMCV), and (iv) HCV NS2 to NS5B genes and the HCV 3′UTR. […]
EC50 values of single agent compounds and combinations were determined by HCV RNA detection using quantitative RT-PCR, according to the manufacturer's instructions, with a TaqMan® One-Step RT-PCR Master Mix Reagents Kit (Cat#AB 4309169, Applied Biosystems) on an ABI Model 7500 thermocycler. The TaqMan primers used for detecting and quantifying HCV RNA were obtained from Integrated DNA Technologies. HCV RNA was normalized to GAPDH RNA levels in drug-treated cells, which is detected and quantified using the Human GAPDH Endogenous Control Mix (Applied Biosystems, AB 4310884E). […] Chemical agent cytotoxicity is evaluated using an MTS assay according to the manufacturer's directions (Promega). […]
With CN(C)[C@@H](C(=O)N1CCC[C@H]1c1ncc(-c2ccc3c(c2)Cc2cc(-c4cnc([C@@H]5CCCN5C(=O)[C@@H](c5ccccc5)N(C)C)[nH]4)ccc2-3)[nH]1)c1ccccc1 [Example 2] the pEC50 was greater than 9.00.
CN(C)[C@@H](C(=O)N1CCC[C@H]1c1ncc(-c2ccc(Oc3cccc(-c4cnc([C@@H]5CCCN5C(=O)[C@@H](c5ccccc5)N(C)C)[nH]4)c3)cc2)[nH]1)c1ccccc1 [Example 1-f] gave a pEC50 greater than 9.00.
Work on CN(C)C(C(=O)N1CCC[C@H]1c1ncc(-c2ccc3cc4cc(-c5cnc([C@@H]6CCCN6C(=O)[C@@H](c6ccccc6)N(C)C)[nH]5)ccc4cc3c2)[nH]1)c1ccccc1 (stereo partly drawn) [Example 1-b] yielded a pEC50 greater than 9.00.
